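Cells were grown in 96-well plates and exposed to each compound for 48 hours at five concentrations; endpoints were interpolated linearly between bracketing concentrations, or set to the highest concentration if not reached. TGI denotes the concentration required for complete inhibition of growth.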
Key:
Test in all cases: NCI-60 cell line screen, 48 h
ACHN renal = test system: ACHN renal
HCT-116 colon = test system: HCT-116 colon
MALME-3M melanoma = test system: MALME-3M melanoma
OVCAR-5 ovarian = test system: OVCAR-5 ovarian
OVCAR-8 ovarian = test system: OVCAR-8 ovarian
PC-3 prostate = test system: PC-3 prostate
SF-539 CNS = test system: SF-539 CNS
SR leukemia = test system: SR leukemia
SW-620 colon = test system: SW-620 colon
HL-60(TB) leukemia = test system: HL-60(TB) leukemia

SMILES | TGI (ACHN renal) [µM] | TGI (HCT-116 colon) [µM] | TGI (MALME-3M melanoma) [µM] | TGI (OVCAR-5 ovarian) [µM] | TGI (OVCAR-8 ovarian) [µM] | TGI (PC-3 prostate) [µM] | TGI (SF-539 CNS) [µM] | TGI (SR leukemia) [µM] | TGI (SW-620 colon) [µM] | TGI (HL-60(TB) leukemia) [µM]
CCOC1=C(c2ccccc2)N2CCCCC2O1 (centres undefined) | > 100 | 15.2 | 20.7 | > 59.2 | > 38.5 | 22.3 | 34.8 | > 31.6 | 36.4 | 
COC(NC(=O)Nc1ccccc1C)(C(F)(F)F)C(F)(F)F | > 100 | > 100 |  | > 100 | > 100 | > 100 | > 100 | > 100 | > 100 | > 100
Cc1nc(Nc2ccccc2Cl)sc1C(=O)CC(=O)C(N)=O | > 100 | > 100 |  | > 100 | > 100 | > 100 | > 100 |  | > 100 | > 100
CC(C)(C)C1=C(Br)C(O)(C(C)(C)C)OP1(=O)c1ccccc1 (centres undefined) | > 100 |  | > 100 | > 100 | > 100 | > 100 | > 100 |  | > 100 | > 100
CCOC(=O)c1cc(Br)c(-c2onc(C)c2Br)[nH]1 |  | > 100 | > 100 | > 100 | 82.6 | > 100 | > 100 | > 100 | > 100 | > 100
CCN(CC)CC1CCCCN1CC(=O)N1CC(C)C(=O)Nc2ccccc21 (centres undefined) | > 100 | > 100 | > 100 | > 100 |  |  |  | > 100 | > 100 | > 100
O=C1/C(=C/c2cccc3ccccc23)CCc2ccc([N+](=O)[O-])cc21 | > 100 | 71 | > 100 | > 100 | > 100 | > 100 | 73.5 |  | > 100 | > 100
CCCCN(C)/N=N/c1nc[nH]c1C(N)=O |  | > 100 | > 100 | > 100 | > 100 |  | > 100 |  | > 100 | > 100
CCNc1cc2c3c(c1)CCN3CCC2 | > 10 | > 10 | > 10 |  | > 10 | > 10 | > 10 | > 10 | > 10 | > 10
O=C(O)/C=C\C(=O)Nn1c(Cc2ccc(Cl)cc2)n[nH]c1=O |  | > 100 | > 100 | > 100 | > 100 | > 100 | > 100 | > 100 |  | > 100
[N-]=[N+]=NCC(O)Cn1cnc2c(NC(=O)c3ccccc3)ncnc21 (centres undefined) | > 100 | > 100 | > 100 | > 100 | > 100 |  | > 100 |  | > 100 | > 100
C=C1CC(C)(c2cccc(Nc3nc4ccccc4c4occc34)c2)OC1=O (centres undefined) | 19.6 | 3.1 | 39.1 | 31.7 | 21.3 | 21.9 | 3.47 |  |  | 5.38
